{"source": "patent US8633200B2", "about": "“Inhibitors of human immunodeficiency virus replication” (priority 2010, dated 2014)", "system": "recombinant NL-Rluc virus (NL4-3 with Renilla Luciferase gene) in MT-2 cells", "test": "Inhibition of HIV replication (NL-Rluc luciferase reporter virus, MT-2 cells)", "format": "cell-based, human immunodeficiency virus (HIV)", "conditions": "NL43, 120 h, read-out: Activity"}
{"smiles": "COc1ccc(-c2c(C(OC(C)(C)C)C(=O)O)c(C)nc3cc(-c4ccccc4)nn23)c(F)c1", "note": "(centres unmarked) [Example 63]", "values": [{"measurement": "EC50", "result": "> 1000", "unit": "nM"}]}
{"smiles": "Cc1nc2cc(-c3ccccc3)nn2c(-c2cc3ccccc3o2)c1C(OC(C)(C)C)C(=O)O", "note": "(centres unmarked) [Example 64]", "values": [{"measurement": "EC50", "result": "> 1000", "unit": "nM"}]}
{"smiles": "Cc1nc2cc(-c3ccccc3)nn2c(-c2ccc3c4c(cccc24)CC3)c1C(OC(C)(C)C)C(=O)O", "note": "(centres unmarked) [Example 65]", "values": [{"measurement": "EC50", "result": "> 1000", "unit": "nM"}]}
{"smiles": "Cc1nc2cc(-c3ccccc3)nn2c(-c2ccc(C(C)(C)C)cc2)c1C(OC(C)(C)C)C(=O)O", "note": "(centres unmarked) [Example 66]", "values": [{"measurement": "EC50", "result": "> 1000", "unit": "nM"}]}
{"smiles": "Cc1nc2cc(-c3ccccc3)nn2c(-c2cc3ccccc3s2)c1C(OC(C)(C)C)C(=O)O", "note": "(centres unmarked) [Example 67]", "values": [{"measurement": "EC50", "result": "> 1000", "unit": "nM"}]}
{"smiles": "Cc1nc2cc(-c3ccccc3)nn2c(-c2csc3ccccc23)c1C(OC(C)(C)C)C(=O)O", "note": "(centres unmarked) [Example 68]", "values": [{"measurement": "EC50", "result": "> 1000", "unit": "nM"}]}
{"smiles": "Cc1nc2cc(-c3ccccc3)nn2c(-c2cccc3cccnc23)c1C(OC(C)(C)C)C(=O)O", "note": "(centres unmarked) [Example 69]", "values": [{"measurement": "EC50", "result": "> 1000", "unit": "nM"}]}
{"smiles": "Cc1nc2cc(-c3ccccc3)nn2c(-c2ccc3[nH]ccc3c2)c1C(OC(C)(C)C)C(=O)O", "note": "(centres unmarked) [Example 70]", "values": [{"measurement": "EC50", "result": "> 1000", "unit": "nM"}]}
{"smiles": "Cc1nc2cc(-c3ccccc3)nn2c(-c2cccc3ncccc23)c1C(OC(C)(C)C)C(=O)O", "note": "(centres unmarked) [Example 71]", "values": [{"measurement": "EC50", "result": "> 1000", "unit": "nM"}]}
{"smiles": "Cc1nc2cc(-c3ccccc3)nn2c(-c2cccc3[nH]ccc23)c1C(OC(C)(C)C)C(=O)O", "note": "(centres unmarked) [Example 72]", "values": [{"measurement": "EC50", "result": "> 1000", "unit": "nM"}]}
{"smiles": "Cc1nc2cc(-c3ccccc3)nn2c(-c2cccc3cnccc23)c1C(OC(C)(C)C)C(=O)O", "note": "(centres unmarked) [Example 73]", "values": [{"measurement": "EC50", "result": "> 1000", "unit": "nM"}]}
{"smiles": "Cc1nc2cc(-c3ccccc3)nn2c(-c2ccc3nccnc3c2)c1C(OC(C)(C)C)C(=O)O", "note": "(centres unmarked) [Example 74]", "values": [{"measurement": "EC50", "result": "> 1000", "unit": "nM"}]}
{"smiles": "Cc1nc2cc(-c3ccccc3)nn2c(-c2ccc(N(C)C)cc2)c1C(OC(C)(C)C)C(=O)O", "note": "(centres unmarked) [Example 75]", "values": [{"measurement": "EC50", "result": "> 1000", "unit": "nM"}]}
{"smiles": "Cc1nc2cc(-c3ccccc3)nn2c(-c2ccc3cn[nH]c3c2)c1C(OC(C)(C)C)C(=O)O", "note": "(centres unmarked) [Example 76]", "values": [{"measurement": "EC50", "result": "> 1000", "unit": "nM"}]}
{"smiles": "Cc1ccc(-c2c(C(OC(C)(C)C)C(=O)O)c(C)nc3cc(-c4ccccc4)nn23)cn1", "note": "(centres unmarked) [Example 77]", "values": [{"measurement": "EC50", "result": "> 1000", "unit": "nM"}]}
{"smiles": "Cc1nc2cc(-c3ccccc3)nn2c(-c2cnc3[nH]ccc3c2)c1C(OC(C)(C)C)C(=O)O", "note": "(centres unmarked) [Example 78]", "values": [{"measurement": "EC50", "result": "> 1000", "unit": "nM"}]}
{"smiles": "Cc1nc2cc(-c3ccccc3)nn2c(-c2ccc3ccncc3c2)c1C(OC(C)(C)C)C(=O)O", "note": "(centres unmarked) [Example 79]", "values": [{"measurement": "EC50", "result": "> 1000", "unit": "nM"}]}
{"smiles": "Cc1nc2cc(-c3ccccc3)nn2c(-c2cccc3cn[nH]c23)c1C(OC(C)(C)C)C(=O)O", "note": "(centres unmarked) [Example 80]", "values": [{"measurement": "EC50", "result": "> 1000", "unit": "nM"}]}
{"smiles": "Cc1nc2cc(-c3ccccc3)nn2c(-c2ccc(Cl)cc2Cl)c1C(OC(C)(C)C)C(=O)O", "note": "(centres unmarked) [Example 81]", "values": [{"measurement": "EC50", "result": "> 1000", "unit": "nM"}]}
{"smiles": "Cc1nc2cc(-c3ccccc3)nn2c(-c2ccc(F)c(Cl)c2)c1C(OC(C)(C)C)C(=O)O", "note": "(centres unmarked) [Example 82]", "values": [{"measurement": "EC50", "result": "> 1000", "unit": "nM"}]}
{"smiles": "Cc1nc2cc(-c3ccccc3)nn2c(-c2ccc(F)c(F)c2)c1C(OC(C)(C)C)C(=O)O", "note": "(centres unmarked) [Example 83]", "values": [{"measurement": "EC50", "result": "> 1000", "unit": "nM"}]}
{"smiles": "Cc1nc2cc(-c3ccccc3)nn2c(-c2ccc(Cl)c(Cl)c2)c1C(OC(C)(C)C)C(=O)O", "note": "(centres unmarked) [Example 84]", "values": [{"measurement": "EC50", "result": "> 1000", "unit": "nM"}]}
{"smiles": "Cc1nc2cc(-c3ccccc3)nn2c(-c2cccc(Cl)c2Cl)c1C(OC(C)(C)C)C(=O)O", "note": "(centres unmarked) [Example 85]", "values": [{"measurement": "EC50", "result": "> 1000", "unit": "nM"}]}
{"smiles": "Cc1nc2cc(-c3ccccc3)nn2c(-c2ccc(Cl)c(F)c2)c1C(OC(C)(C)C)C(=O)O", "note": "(centres unmarked) [Example 86]", "values": [{"measurement": "EC50", "result": "> 1000", "unit": "nM"}]}
{"smiles": "Cc1nc2cc(-c3ccccc3)nn2c(-c2ccc(C)c3ccccc23)c1C(OC(C)(C)C)C(=O)O", "note": "(centres unmarked) [Example 87]", "values": [{"measurement": "EC50", "result": "> 1000", "unit": "nM"}]}
{"smiles": "COc1ccc(-c2c(C(OC(C)(C)C)C(=O)O)c(C)nc3cc(-c4ccccc4)nn23)cc1C", "note": "(centres unmarked) [Example 88]", "values": [{"measurement": "EC50", "result": "> 1000", "unit": "nM"}]}
{"smiles": "Cc1nc2cc(-c3ccccc3)nn2c(-c2ccc3c(c2)OCCCO3)c1C(OC(C)(C)C)C(=O)O", "note": "(centres unmarked) [Example 89]", "values": [{"measurement": "EC50", "result": "> 1000", "unit": "nM"}]}
{"smiles": "Cc1nc2cc(-c3ccccc3)nn2c(-c2ccc(F)cc2Cl)c1C(OC(C)(C)C)C(=O)O", "note": "(centres unmarked) [Example 90]", "values": [{"measurement": "EC50", "result": "> 1000", "unit": "nM"}]}
{"smiles": "Cc1ccc(-c2c(C(OC(C)(C)C)C(=O)O)c(C)nc3cc(-c4ccccc4)nn23)c(C)c1", "note": "(centres unmarked) [Example 91]", "values": [{"measurement": "EC50", "result": "> 1000", "unit": "nM"}]}
